test system: P. falciparum 3D7 growth, pLDH absorbance; test: P. falciparum 3D7 growth inhibition, dose response, strain 3D7 (AID 2305)

| SMILES | IC50 |
| --- | --- |
| Cc1ccc(S(=O)(=O)n2cc(-c3ccnc(N)c3)c3cc(Br)cnc32)cc1 | 900 nM |
| CCCC(C)NC(=O)[C@H]1CNCCN1C(=O)CCCc1ccccc1 (stereo not given in full) | 190 nM |
| CCCCCOc1ccc(C=NNc2nc(-c3ccccc3)cc(=O)[nH]2)cc1 | 890 nM |
| CC(C)CCCC(C)NC[C@@H](O)[C@H](Cc1ccccc1)NC(=O)c1cc(N2CCCC2=O)cc(N(c2ccccc2)S(C)(=O)=O)c1 (stereo not given in full) | 60 nM |
| COc1ccc(C=CC(=O)Nc2ccc(N3CCCC3)cc2)cc1 | 1280 nM |
| COc1ccc(NC(=O)CCNc2cc(C)nc(NCCOc3ccccc3)n2)cc1 | 750 nM |
| O=C(NCc1cccc(Br)c1)c1ccc(CNC2CCN(Cc3ccccc3)CC2)cc1 | 870 nM |
| O=C(Nc1cccc(C(F)(F)F)c1)Nc1ccc2nonc2c1 | 850 nM |
| COc1cccc(OC)c1CN1CCC(N(C)CCCCCCCCCN2CCC(OC(=O)Nc3ccccc3-c3ccccc3)CC2)CC1 | 320 nM |
| O=S(=O)(NC1CCN(c2ccnc3cc(Cl)ccc23)C1)c1ccc(C(F)(F)F)cc1 (stereo not given) | 300 nM |
| C=C(C)Cn1cc(C2CCN(CCN3CCC(CNC(=O)c4ccc(-c5ccc(C#N)cc5)cc4)CC3)CC2)c2ccccc21 | 430 nM |
| COc1ccc(NC(=O)Nc2cc(C)nc3ccccc23)cc1Cl | 690 nM |
| Cc1cc(OCCCN2CCC(NS(=O)(=O)c3ccc(Cl)c(Cl)c3)C2)c2ccccc2n1 (stereo not given) | 1050 nM |
| Nc1ncnc2occ(-c3ccc(NC(=O)Nc4cc(C(F)(F)F)ccc4F)cc3)c12 | 1720 nM |
| COc1ccc2c(NN=Cc3ccccc3)ccnc2c1 | 130 nM |
| COc1cc(C=NNc2cc(C)nc3c(OC)cccc23)cc(OC)c1OC | 890 nM |
| Cc1ccccc1OCCCc1c(C)nc(N)nc1N | 280 nM |
| COc1ccc2ccccc2c1C=NNc1ccnc2cc(Cl)ccc12 | 610 nM |
| Cc1ccc(NC(=O)c2ccc(CN3CCCN(CCC(C)C)CC3)cc2)cc1F | 610 nM |
| CC(C)(C)CNCC(C)(C)c1nc(-c2ccc(Cl)c(O)c2)c(-c2ccncc2)[nH]1 | 600 nM |
| CN1CCCN(Cc2ccc(-c3ccc(NC(=O)c4ccc(C#N)cc4)cc3)cc2)CC1 | 1020 nM |
| CN(C)CCOc1ccc(-c2cc(-c3ccncc3)c(-c3ccc(Cl)c(O)c3)o2)cc1 | 210 nM |
| CC(Nc1nncc(-c2cccc(F)c2)n1)c1ccc(F)cc1 (stereo not given) | 790 nM |
| Cc1[nH]c(C)c(-c2ccc(C(=O)c3ccc(Cl)cc3)cc2)c(=O)c1Cl | 530 nM |
| COc1ccc(CCOc2c(C)nc(N)nc2N)cc1OC | 70 nM |

| SMILES | IC50 |
| --- | --- |
| CN(C)CCNCc1cccc(-c2ccc3c(Nc4ccc(F)cc4Cl)ccnc3c2)c1 | 810 nM |
| O=S(=O)(NCCN1CCCC1)c1ccc(-c2cccc(CNCc3ccc(F)cc3)c2)cc1 | 730 nM |
| COc1cccc(CN2CCCN(Cc3cccc(NC(=O)c4ccc(-c5ccccc5)cc4)c3)CC2)c1 | 240 nM |
| Cc1cccc(C)c1CNc1cccc(-c2nc(C)c(C)[nH]2)c1 | 880 nM |
| CCOCCCNc1nc2cc(OC)c(OC)cc2c2nc(-c3ccccc3)nn12 | 210 nM |
| NC(=O)Nc1ccc2c(Nc3ccc(OCc4ccccc4)cc3)ncnc2c1 | 1260 nM |
| COCC(=O)N(Cc1ccccc1-c1ccc(CNCCc2ccccc2)cc1)C1CCN(Cc2ccccc2)CC1 | 890 nM |
| CCN1CCC(NCc2ccc(-c3ccc(Cl)s3)cc2)CC1 | 940 nM |
| COc1cc2nc(NCCc3ccccc3)nc(NCc3ccc(C#N)cc3)c2cc1OC | 150 nM |
| CC[C@H]1CN(Cc2ccccc2Br)CC[C@H]1CCCc1ccnc2ccc(O)cc12 | 1000 nM |
| CS(=O)(=O)c1ccc(-c2cncc(Nc3cccc([N+](=O)[O-])c3)c2)cc1 | 770 nM |
| C[C@@H](C(=O)N1CCOCC1)N1CC[C@H](NS(=O)(=O)c2ccc3ccnc(N)c3c2)C1=O | 1500 nM |
| Cc1cnccc1/C=C/c1cccc(OCCCN2CCc3ccc(S(C)(=O)=O)cc3CC2)c1 | 610 nM |
| Cc1ccccc1Nc1nc(NCCCO)c2ccccc2n1 | 410 nM |
| c1ccc2c(CNc3ccnc(NCc4cccc5ccccc45)n3)cccc2c1 | 560 nM |
| Cc1cc(F)ccc1-c1nc(NCCCN2CCCC2=O)nc2c1ccc(=O)n2-c1c(F)cccc1F | 1020 nM |
| CN1CCN(c2ccc3nccc(CCN4CCC(NCc5ccc6c(n5)NC(=O)CO6)CC4)c3n2)CC1 | 820 nM |
| CCCCn1c(Sc2ccc(C#N)c([N+](=O)[O-])c2)nnc1-c1ccc(OC)cc1 | 1030 nM |
| CCN(CC)c1ccc(C(c2ccc(N(CC)CC)cc2)c2cccc([N+](=O)[O-])c2)cc1 | 380 nM |
| COc1ccc(-c2cccc(NC(=O)c3ccc(Cl)cc3)c2)cc1CN1CCCC1 | 780 nM |
| CS(=O)(=O)NCCCNCc1cccc(-c2ccc(-c3nc4ccc(C(F)(F)F)cc4[nH]3)s2)c1 | 880 nM |
| O=C(NCCc1ccccc1)N(Cc1cccc(-c2ccc(CNC3CCCC3)cc2)c1)C1CCN(Cc2ccccc2)CC1 | 400 nM |
| CCc1ccc(C2CCN(CCCCNC(=O)c3ccc(-c4ccc(C#N)cc4)cc3)CC2)c(OCCO)c1 | 940 nM |
| CCNc1cc(C(=O)N[C@@H](Cc2ccccc2)[C@H](O)CNCC(C)C)cc(N2CCCC2=O)c1 | 490 nM |
| CCN(CC)CCOC(=O)c1ccc(NC(=O)c2cc(-c3ccc(C)cc3)nc3ccccc23)cc1 | 780 nM |

| SMILES | IC50 |
| --- | --- |
| Clc1cccc(-c2nc(Nc3ccnc(-c4ccc(CN5CCOCC5)cc4)c3)c3ccccc3n2)c1 | 710 nM |
| CC(Cc1ccc(OCCOc2ccccc2)cc1)NCC(O)c1cccc(Cl)c1 (stereo not given) | 1040 nM |
| CCc1cc(Cc2cnc(N)nc2N)cc(CC)c1OC | 1130 nM |
| NCCCCNc1cc(-c2ccnc(Nc3cccc(Cl)c3)n2)ccn1 | 280 nM |
| Cc1cc(C(=O)Nc2ccc3c(c2)CCN3C2CCN(Cc3ccc4nsnc4c3)C2)no1 (stereo not given) | 640 nM |
| O=C(CCn1cncn1)N1CCCC(c2[nH]c3ccccc3c2-c2ccncc2)C1 (stereo not given) | 800 nM |
| NC(N)=NN=Cc1cc([N+](=O)[O-])ccc1Sc1ccccc1CO | 1460 nM |
| COc1ccc2nccc([C@@H](O)CN3CCC(NC(=O)/C=C/c4cc([N+](=O)[O-])ccc4OC)CC3)c2c1 | 260 nM |
| CS(=O)(=O)CCNCc1nc(-c2ccc3c(Nc4ccc(F)c(O)c4)ccnc3c2)cs1 | 820 nM |
| Cc1cc(-c2cccc(CNCc3ccccc3)c2)ccc1S(=O)(=O)NCCN1CCCC1 | 730 nM |
| CC1CCN(CC[C@H]2CCCN2S(=O)(=O)c2cccc(NC(=O)c3ccc(-c4ccc(Cl)cc4)o3)c2)CC1 | 690 nM |
| Nc1nc(N)c2c(n1)CCC(c1ccccc1)C2 (stereo not given) | 1010 nM |
| COc1cc2c(cc1OC)CN(CCCCc1ccc(NC(=O)c3cc(Cl)cc(Cl)c3)cc1)CC2 | 1200 nM |
| CC(C)C(NC(=O)Cc1cccc2ccccc12)C(=O)Nc1cccc(C#N)c1 (stereo not given) | 660 nM |
| Cc1cc(NC2CCN(CC3CCCCC3)C2)nc(Nc2ccc(Br)cc2)n1 (stereo not given) | 570 nM |
| NC(=O)c1cccc(C(=O)Nc2cccc(-c3ccc(-c4nc5ccccc5[nH]4)s3)c2)c1 | 350 nM |
| Cc1ccc(NC(=O)Nc2ccc(Cl)cc2)cc1-c1ccc(C(=O)Nc2ccncc2)cc1 | 530 nM |
| COc1cccc(NC(=O)[C@H](C(C)C)n2c(=O)[nH]c3ccccc3c2=O)c1 | 270 nM |
| CC(COc1ccc2c(c1)OC(C)(C)CC2c1ccccc1)NCC(O)c1cccc(Cl)c1 (stereo not given) | 750 nM |
| COc1ccc2nccc([C@@H](O)CN3CCC(NCCOc4ccccc4[N+](=O)[O-])CC3)c2c1 | 380 nM |
| COc1cccc(CNC(=O)[C@@H]2CN(C(=O)c3ccccc3)CCN2)c1 | 1160 nM |
| CCOC(=O)c1[nH]c(-c2cc(Cl)nc(Cl)c2)nc1NC(=S)NCCCN1CCOCC1 | 930 nM |
| Cc1ccc(C2CCN(CCCCNC(=O)c3ccc(NC(=O)c4ccc(Cl)cc4)cc3)CC2)c(OCC(F)(F)F)c1 | 280 nM |
| COc1ccccc1CNC(=O)c1cc(Br)cc(N2CCN(c3ccncc3)CC2)c1 | 950 nM |
| CC(C)c1ccc2c(c1)C(=O)c1ccc(C(=O)O)cc1S2(=O)=O | 470 nM |

| SMILES | IC50 |
| --- | --- |
| CN1CCN(Cc2nc(-c3ccc4c(Nc5ccc(F)c(O)c5)ccnc4c3)cs2)CC1 | 170 nM |
| c1csc(-c2ccc3c(c2)CC(NCc2c[nH]c4cnccc24)C3)c1 (stereo not given) | 740 nM |
| Oc1ccc(-c2nc3c4cc(I)ccc4c4ccc(I)cc4c3[nH]2)cc1 | 970 nM |
| COc1ccc(CN(C)CC(O)COc2ccc(NC(=O)c3cccc4c(=O)c5cccc(OC)c5[nH]c34)cc2)cc1OC (stereo not given) | 780 nM |
| Cc1cc(N[C@@H](Cc2ccccc2)C(=O)Nc2ccccc2)nc(NCCc2ccccc2)n1 | 870 nM |
| COc1ccc(CNc2nc(Nc3cccc(C#N)c3)nc(Nc3cccc(C#N)c3)n2)cc1Cl | 180 nM |
| Oc1ccc(CCNc2nc(N/N=C/c3ccc(Cl)cc3)nc(N3CCNCC3)n2)cc1 | 580 nM |
| CCCNCc1ccc(-c2ccc(CNC3Cc4ccccc4C3)cc2)nc1 | 850 nM |
| O=C(/C=C/c1ccc(Cl)c(Cl)c1)NC1CCC(N2CCC(c3c[nH]c4ccccc34)CC2)CC1 (stereo not given) | 880 nM |
| O=C(NCc1cccc2ccccc12)[C@@H]1CCCN1C(=O)c1ccc(O)c(-c2ccc(Cl)c(Cl)c2)c1 | 950 nM |
| Cc1cc(N[C@@H](Cc2ccccc2)C(=O)NCc2cccc(F)c2)nc(NCC2CCCCC2)n1 | 850 nM |
| NCc1ccc(-c2ccccc2CN(C(=O)Nc2ccccc2)C2CCN(Cc3ccccc3)CC2)cc1 | 880 nM |
| CS(=O)(=O)c1ccc(-c2cnc(N)c(-c3cccc(CO)c3)c2)cc1 | 940 nM |
| CC1CN(C(=O)c2sc3ccccc3c2Cl)CC(C)O1 (stereo not given) | 90 nM |
| COc1ccc(NC(=O)NC2CCN(CCCOc3ccnc4cc(Cl)ccc34)C2)cc1OC (stereo not given) | 790 nM |
| O=C(C=Cc1ccccc1O)N1CCC(CN2CCC(c3c[nH]c4ccccc34)CC2)CC1 | 960 nM |
| Cc1cc(C(F)(F)F)n2nc(C(=O)N(Cc3cncn3Cc3cccc(F)c3)CC3CC3)cc2n1 | 740 nM |
| CCCCN(CCCC)CCOc1cc2c(cc1OC)CCN2C(=O)/C=C/c1ccccc1Cl | 1180 nM |
| CN1CCN(c2ccc(Nc3ccnc4ccc(-c5ccccc5)cc34)cc2)CC1 | 90 nM |
| CN1CCN(c2ccnc3ccc(NC(=O)Nc4ccc(Cl)cc4)cc23)CC1 | 110 nM |
| Cc1c(C)c2c(c(C)c1O)CC[C@@](C)(C(=O)N1CCC(CCN3CCC(c4c[nH]c5ccccc45)CC3)CC1)O2 | 670 nM |
| Cn1nc(-c2ccc(CN[C@@H]3CCc4ccc(O)cc43)cc2)c2cnc(NC3CCCC3)nc21 | 1120 nM |
| CCCN1CCN(Cc2ccc(-c3ccc(-c4nc5ccccc5[nH]4)s3)cc2)CC1 | 610 nM |
| Oc1ccc(Cl)cc1CN1CCC(CCOC(c2ccccc2)c2ccccc2)CC1 | 650 nM |
| O=C(Nc1cccc(-c2nn3ccccc3c2-c2ccnc(Nc3ccc(NCCCN4CCOCC4)c(F)c3)n2)c1)c1c(F)cccc1F | 260 nM |

Source: PubChem BioAssay AID2305 (GlaxoSmithKline (GSK), 2010)
